Reference: ChEMBL document CHEMBL5725949, “Pyrazolopyridine derivatives and their use in therapy” (2018)
pIC50: −log10 of the molar value.

Test: Antitrypanosomal Activity Assay: Antitrypanosomal activity was tested on T. brucei brucei bloodstream from parasites (strain¿Lister 427, VATMITat 1.2). Stock solutions of compounds (50 mM) were prepared in DMSO. Two fold serial dilutions of each compound (10 wells in each row) were prepared in 96 well plates in HMI111 medium (100 μl/well; quadruplicates; cf. also Hirumi et al., J. Parasitol. 75 (1989), 985-989). One well without compound, and one well with media alone were included in each row. Parasites grown in HMI11 were inoculated (100 μl of 4×10^4/ml) in all wells (except the well with ¿media alone¿) giving a final concentration of parasites of 2×10^4/ml. The plates were incubated for 66 hours at 37° C. in the incubator with 5% CO2. 20 μl resazurin (Sigma, 0.125 mg/ml in Hanks Balanced Salt Solution) was added to all wells and the plate was further incubated for 6 hours. Change in color of resazurin (blue to pink) by living cells was measured with a 96 well plate reader (excitation at 530 nm, emission at 585 nm, filter cut-off: 570 nm). Percent inhibition values were calculated by setting the well without compound to ¿0% inhibition¿.

| Compound | pIC50 |
| --- | --- |
| COc1ccc(CN2CCc3nn4c(c3C2)C(=O)N(Cc2cccc3ccccc23)CC4)c2ccccc12 | 5.37 |
| COc1ccc(CN2CCc3c(c(C(=O)NCc4cccc5ccccc45)nn3CCN3CCOCC3)C2)c2ccccc12 | 6.00 |
| Cc1ccccc1-c1ccc(CN2CCc3c(c(C(=O)NCc4ccccc4)nn3CCO)C2)cc1 | 5.56 |
| NCCn1nc(C(=O)NCc2cccc3ccccc23)c2c1CCN(Cc1ccc(Cl)cc1)C2 | 6.01 |
| O=C(NCc1ccccc1)c1nn(CCO)c2c1CN(Cc1cccn1-c1ccccn1)CC2 | 4.98 |
| O=C(NCc1cccc2ccccc12)c1nn(CCO)c2c1CN(CCc1ccccc1)CC2 | 4.57 |
| COc1ccc(CN2CCc3c(c(C(=O)NCc4cccc5ccccc45)nn3CCNC(=N)N)C2)c2ccccc12 | 6.66 |
| CCCc1ccc(CN2CCc3c(c(C(=O)NCc4cccc5ccccc45)nn3CCO)C2)cc1 | 5.36 |
| COc1ccc(CN2CCc3[nH]nc(C(=O)NCc4cccc5ccccc45)c3C2)c2ccccc12 | 5.95 |
| O=C(NCc1cccc2ccccc12)c1nn(CCO)c2c1CN(Cc1cccc3c1OCO3)CC2 | 4.80 |
| O=C(NCc1ccccc1)c1nn(CCO)c2c1CN(Cc1cc3ccccc3c3ccccc13)CC2 | 5.47 |
| Cn1nc(C(=O)NCc2ccccc2)c2c1CCN(Cc1c[nH]c3cc(OCc4ccccc4)ccc13)C2 | 5.77 |
| COc1ccc(CN2CCc3c(c(C(=O)NCc4cccc5ccccc45)nn3CCN)C2)c2c1CCCC2 | 6.24 |
| CC(NC(=O)c1nn(CCO)c2c1CN(C(=O)c1ncc3sccn13)CC2)c1ccccc1 (stereo not drawn) | 4.30 |
| CC(NC(=O)c1nn(CCO)c2c1CN(CC1Cc3ccccc3CN1C)CC2)c1ccccc1 (stereo not drawn) | 4.87 |
| COc1ccc(CN2CCc3c(c(C(=O)NCc4cccc5ccccc45)nn3-c3ccccc3)C2)c2ccccc12 | 6.62 |
| Cc1ccc(CCN2CCc3c(c(C(=O)NCc4cccc5ccccc45)nn3CCO)C2)cc1 | 3.94 |
| Cn1nc(C(=O)NCc2ccccc2)c2c1CCN(Cc1ccc(-c3ccccc3)cc1)C2 | 5.39 |
| O=C(NCc1ccccc1)c1nn(CCO)c2c1CN(CC(c1ccccc1)c1ccccc1)CC2 | 5.27 |
| CC(NC(=O)c1nn(CCO)c2c1CN(Cc1ccc3ccoc3c1)CC2)c1ccccc1 (stereo not drawn) | 4.79 |
| O=C(NCc1ccccc1)c1nn(CCO)c2c1CN(Cc1cnn(-c3ccccc3)c1)CC2 | 4.90 |
| O=C(NCc1cccc2ccccc12)c1nn(CCO)c2c1CN(Cc1c[nH]c3c(C(=O)O)cccc13)CC2 | 4.37 |
| O=C(c1nn(Cc2ccccn2)c2c1CN(Cc1ccccc1)CC2)N1CCc2ccccc2C1 | 5.02 |

| Compound | pIC50 |
| --- | --- |
| COc1ccc(CN2CCc3c(c(C(=O)NCc4cccc5ccccc45)nn3Cc3ccccc3)C2)c2ccccc12 | 5.47 |
| COc1ccc(CN2CCc3nn(CCO)c(C(=O)NCc4cccc5ccccc45)c3C2)c2ccccc12 | 4.62 |
| COc1ccc(CN2CCc3c(c(C(=O)NCc4cccc5ccccc45)nn3C3CCC3)C2)c2ccccc12 | 5.70 |
| Cn1nc(C(=O)NCc2ccc3ccccc3c2)c2c1CCN(Cc1c[nH]c3ccccc13)C2 | 5.58 |
| CC(=O)c1ccc(CN2CCc3c(c(C(=O)NCc4ccccc4)nn3CCO)C2)cc1 | 4.65 |
| O=C(NCc1ccccc1)c1nn(CCO)c2c1CN(Cc1ccc(-c3ccccc3)cc1)CC2 | 5.27 |
| CCc1ccc(CN2CCc3c(c(C(=O)NCc4ccccc4)nn3CCO)C2)cc1 | 4.87 |
| COc1ccc(CN2CCc3c(c(C(=O)NCc4cccc5cccnc45)nn3CCO)C2)c2ccccc12 | 5.53 |
| COc1ccc(CN2CCc3c(c(C(=O)NCc4cccc5ccccc45)nn3C3CN(C(=O)C(C)(C)C)C3)C2)c2ccccc12 | 5.96 |
| COc1ccc2c(CN3CCc4c(c(C(=O)NCc5cccc6ccccc56)nn4CCO)C3)c[nH]c2c1 | 5.60 |
| CC(NC(=O)c1nn(CCO)c2c1CN(Cc1cccc3c1OCO3)CC2)c1ccccc1 (stereo not drawn) | 4.75 |
| CC(NC(=O)c1nn(CCO)c2c1CN(Cc1cnn(-c3ccccc3)c1)CC2)c1ccccc1 (stereo not drawn) | 4.84 |
| COc1ccc2[nH]c(CN3CCc4c(c(C(=O)NCc5cccc6ccccc56)nn4CCO)C3)cc2c1 | 5.15 |
| COc1ccc(CN2CCc3c(c(C(=O)NCc4cccc5ccccc45)nn3-c3cnccn3)C2)c2ccccc12 | 5.59 |
| COc1ccc(CN2CCc3c(c(C(=O)NCc4cccc5ccccc45)nn3C3CCCC3)C2)c2ccccc12 | 5.91 |
| NCCn1nc(C(=O)NCc2cccc3ccccc23)c2c1CCN(Cc1ccc(Cl)c(Cl)c1)C2 | 5.90 |
| C=C(C)C1CC=C(CN2CCc3c(c(C(=O)NCc4ccccc4)nn3CCO)C2)CC1 (stereo not drawn) | 4.77 |
| O=C(NCc1ccccc1)c1nn(CCO)c2c1CN(Cc1cccc(OC(F)F)c1)CC2 | 4.71 |
| C=CCn1nc(C(=O)NCc2ccccc2)c2c1CCN(Cc1ccc3ncccc3c1)C2 | 5.02 |
| Cn1nc(C(=O)NCc2ccccc2)c2c1CCN(Cc1noc3c1CCCC3)C2 | 4.35 |
| O=C(NCc1cccc2ccccc12)c1nn(CCO)c2c1CN(Cc1ccc(F)c3ccccc13)CC2 | 4.47 |
| COc1ccc(CN2CCc3c(c(C(=O)NCc4cccc5ccccc45)nn3CC(O)CN)C2)c2ccccc12 (stereo not drawn) | 6.21 |
| O=C(NCc1ccccc1)c1nn(-c2ccccc2)c2c1CN(Cc1c[nH]c3ccccc13)CC2 | 5.64 |

| Compound | pIC50 |
| --- | --- |
| O=C(NCc1cccc2ccccc12)c1nn(CCO)c2c1CN(Cc1cccc3cc[nH]c13)CC2 | 5.33 |
| Cn1nc(C(=O)NCc2ccccc2)c2c1CCN(Cc1cccc(-c3ccccc3)c1)C2 | 5.39 |
| O=C(NCc1ccccc1)c1nn(CCO)c2c1CN(CC1=CC(=O)C3C=C(Cl)C=CC3O1)CC2 (stereo not drawn) | 4.45 |
| Cc1nc2sccn2c1CN1CCc2c(c(C(=O)NCc3ccccc3)nn2CCO)C1 | 4.57 |
| COc1cc(CN2CCc3c(c(C(=O)NCc4ccccc4)nn3CCO)C2)cc2c1OCO2 | 4.96 |
| O=C(CC1CC1)N1CCc2c(c(C(=O)N3CCc4ccccc4C3)nn2Cc2ccccn2)C1 | 4.26 |
| COc1ccc(CN2CCc3c(c(C(=O)NCc4cccc5[nH]ccc45)nn3CCO)C2)c2ccccc12 | 5.99 |
| COC(=O)c1ccc2c(CN3CCc4c(c(C(=O)NCc5cccc6ccccc56)nn4CCO)C3)c[nH]c2c1 | 5.57 |
| O=C(NCc1cccc2ccccc12)c1nn(CCO)c2c1CN(Cc1ccc(-c3ccccc3)cc1)CC2 | 6.06 |
| O=C(NCc1ccccc1)c1nn(CCO)c2c1CN(Cc1ccc(OC(F)(F)F)cc1)CC2 | 4.90 |
| O=C(NCc1ccccc1)c1nn(CCO)c2c1CN(Cc1ccc3c(c1)OC=CO3)CC2 | 4.63 |
| Cn1nc(C(=O)NCc2cccc3ccccc23)c2c1CCN(Cc1cccc3ccccc13)C2 | 5.38 |
| O=C(NCc1ccccc1)c1nn(CCO)c2c1CN(Cc1ccccc1C(F)(F)F)CC2 | 4.24 |
| COc1ccc2cc(CN3CCc4c(c(C(=O)NCc5cccc6ccccc56)nn4CCO)C3)ccc2c1 | 4.74 |
| O=C(NCc1cccc2ccccc12)c1nn(CCO)c2c1CN(Cc1ccc(C(F)(F)F)cc1)CC2 | 5.52 |
| O=C(NCc1cccc2ccccc12)c1nn(CCO)c2c1CN(Cc1cccc(-c3ccccc3)c1)CC2 | 5.82 |
| O=C(NCc1ccccc1)c1nn(CCO)c2c1CN(Cc1ccccc1-c1ccco1)CC2 | 5.17 |
| O=C(NCc1cccc2ccccc12)c1nn(CCO)c2c1CN(Cc1c[nH]c3cc(OCc4ccccc4)ccc13)CC2 | 5.00 |
| COc1ccc(CN2CCc3c(c(C(=O)NCc4cccc(C)c4)nn3CCO)C2)c2ccccc12 | 5.11 |
| O=C(NCc1cccc2ccccc12)c1nn(CCO)c2c1CN(Cc1cccc3cccnc13)CC2 | 5.19 |
| COc1ccc(CN2CCc3c(c(C(=O)NCc4cc(F)cc5ccccc45)nn3CCO)C2)c2ccccc12 | 4.95 |
| COC(=O)c1cccc2c(CN3CCc4c(c(C(=O)NCc5ccccc5)nn4CCO)C3)c[nH]c12 | 4.88 |
